Measured values taken from US6818653B1, “6,7-Disubstituted -5,8-quinolinedione derivatives as an antifungal agent” (Il Jin Copper Foil Corp., priority 2002, dated 2004).
Converted amounts (≈) assume the structure as drawn. Like-named read-outs stand apart in the source and are kept apart here.

Assays:
[1] = test system: Candida tropicalis ATCC8775; assay: MIC by solid medium dilution method; assay type: cell-based; conditions: Sabouraud's agar, 3 days at 30° C.; for MIC: Candida tropicalis, ATCC8775, 72 h, read-out: MIC C. tropicallis
Method: (§1) The minimum inhibitory concentration (MIC), which indicates the lowest concentration of the active ingredient in the growth medium, was determined by solid medium dilution method. Pathogens strains used are Candida albicans ATCC10231, Candida glabrata ATCC2001, Candida tropicalis ATCC8775, Candida parasilosis ATCC22019, Cryptococuss neoformans KCTC7223.
(§2) 4 mg of a test compound was dissolved in 2 ml of dimethylfulfoxide(DMSO) to produce solutions having a concentration of 2 mg/ml for use and serial two-fold dilution was prepared. The test medium was Sabouraud's agar. 50 μl aliquot of serial two-fold dilution was added to 1 ml of agar medium in 10×1.2 cm petri dishes to be 100, 50, 25, 12.5 6.3, 1.6, and 0.8 μg/ml of test compound concentration and the slant was prepared by tilting the petri dishes. The MIC value without containing a test compound was determined in order to test an effect of a solvent to an antifungal activity. Hyphae with a diameter of 2 mm were inoculated with 2×10^5 CFU. After the medium was cultured for 3 days at 30° C., the MIC values were determined. Control drugs were fluconazole and ketoconazole.

[2] = test system: Cryptococuss neoformans KCTC7223; assay: MIC by solid medium dilution method; assay type: cell-based; conditions: Sabouraud's agar, 3 days at 30° C.; for MIC: Cryptococcus neoformans, KCTC7223, 72 h
Method: as §1, §2

[3] = test system: Candida parasilosis ATCC22019; assay: MIC by solid medium dilution method; assay type: cell-based; conditions: Sabouraud's agar, 3 days at 30° C.; for MIC: 72 h, read-out: MIC C. parapsilosis
Method: as §1, §2

[4] = test system: Candida glabrata ATCC2001; assay: MIC by solid medium dilution method; assay type: cell-based; conditions: Sabouraud's agar, 3 days at 30° C.; for MIC: Nakaseomyces glabratus, ATCC2001, 72 h
Method: as §1, §2

[5] = test system: Candida albicans ATCC10231; assay: MIC by solid medium dilution method; assay type: cell-based; conditions: Sabouraud's agar, 3 days at 30° C.; for MIC: Candida albicans, ATCC10231, 72 h
Method: as §1, §2

C. albicans = assay: ED50 in rats infected with C. albicans via tail vein; assay type: in vivo, rat; conditions: for ED50: Candida albicans, read-out: ED50 ± SD (n = 5)
Method: C. albicans (1×10^7) isolated was inoculated to Sabouraud's agar, suspended in a physiological saline solution, and injected into tail vein of a rat. Strains to kill a rat within 48 hours were selected. C. albicans (2×10^6 which is concentration to kill a rat within 48 hours) suspended in a physiological saline solution was injected and infected into tail veins of 125 rats. Each concentration (10, 2, 0.5, 0.1, 0.025 mg/kg) of the compounds of table 3 was administered to each 10 rats. After infecting with Candida strain, each compound was administered to each 10 rats. Fluconazol as a control drug was also administered with 10, 2, 0.5 and 0.1 mg/kg of concentrations. A physiological saline solution containing 0.2% tween 20 was administered as a control group.

[6] = rat infected with C. albicans 2×10^6 via tail vein

Compound: 6-n-hecxylmercapto-7-chloro-5,8-quinolindion [compound 17]
- MIC C. tropicallis [1]: 50 µg/mL
- MIC C. neoformans [2]: 12.5 µg/mL
- MIC C. parapsilosis [3]: 25 µg/mL
- MIC C. glabrata [4]: 50 µg/mL
- MIC C. albicans [5]: 25 µg/mL

Compound: O=C1C(Nc2ccc(Cl)cc2)=C(Br)C(=O)c2ncccc21 [Compound No. 1, 6-[(N-4-chlorophenyl)amino]-7-bromo-5,8-quinolindion]
- MIC [1]: 12.5 µg/mL (≈ 34.4 µM)
- MIC [2]: 12.5 µg/mL (≈ 34.4 µM)
- MIC [3]: 25 µg/mL (≈ 68.8 µM)
- MIC [4]: 12.5 µg/mL (≈ 34.4 µM)
- MIC [5]: 6.3 µg/mL (≈ 17.3 µM)
- ED50 (C. albicans): 0.06 mg/kg

Compound: O=C1C(Nc2cc(Cl)cc(Cl)c2)=C(Cl)C(=O)c2ncccc21 [Compound No. 2, 6-[(N-3,5-dichlorophenyl)amino]-7-chloro-5,8-quinolindion]
- MIC C. tropicallis [1]: 25.0 µg/mL (≈ 70.7 µM)
- MIC C. neoformans [2]: 12.5 µg/mL (≈ 35.4 µM)
- MIC C. parapsilosis [3]: 6.3 µg/mL (≈ 17.8 µM)
- MIC C. glabrata [4]: 12.5 µg/mL (≈ 35.4 µM)
- MIC C. albicans [5]: 12.5 µg/mL (≈ 35.4 µM)
- ED50 ± SD (n = 5) (C. albicans; [6]): 0.07 mg/kg

Compound: O=C1C(Nc2ccc(Br)cc2)=C(Br)C(=O)c2ncccc21 [Compound No. 3, 6-[(N-4-bromophenyl)amino]-7-bromo-5,8-quinolindion]
- MIC [1]: 12.5 µg/mL (≈ 30.6 µM)
- MIC [2]: 6.3 µg/mL (≈ 15.4 µM)
- MIC [3]: 25 µg/mL (≈ 61.3 µM)
- MIC [4]: 6.3 µg/mL (≈ 15.4 µM)
- MIC [5]: 6.3 µg/mL (≈ 15.4 µM)
- ED50 (C. albicans): 0.06 mg/kg

Compound: CC(=O)c1ccc(NC2=C(Cl)C(=O)c3ncccc3C2=O)cc1 [Compound No. 4, 6-[(N-4-acetophenyl)amino]-7-chloro-5,8-quinolindion]
- MIC C. tropicallis [1]: 3.2 µg/mL (≈ 9.79 µM)
- MIC C. neoformans [2]: 12.5 µg/mL (≈ 38.3 µM)
- MIC C. parapsilosis [3]: 6.3 µg/mL (≈ 19.3 µM)
- MIC C. glabrata [4]: 3.2 µg/mL (≈ 9.79 µM)
- MIC C. albicans [5]: 1.6 µg/mL (≈ 4.9 µM)

Compound: OC(Cn1cncn1)(Cn1cncn1)c1ccc(F)cc1F [Fluconazole, fluconazole, reference compound]
- MIC [1]: 100 µg/mL (≈ 327 µM)
- MIC [2]: 25 µg/mL (≈ 81.6 µM)
- MIC [3]: 12.5 µg/mL (≈ 40.8 µM)
- MIC [4]: 25 µg/mL (≈ 81.6 µM)
- MIC [5]: 25 µg/mL (≈ 81.6 µM)
- ED50 (C. albicans; [6]): 6 mg/kg

Compound: CC(=O)N1CCN(c2ccc(OCC3COC(Cn4ccnc4)(c4ccc(Cl)cc4Cl)O3)cc2)CC1 (stereo not drawn) [Ketoconazole, ketoconazole, reference compound]
- MIC [1]: 12.5 µg/mL (≈ 23.5 µM)
- MIC [2]: 12.5 µg/mL (≈ 23.5 µM)
- MIC [3]: 12.5 µg/mL (≈ 23.5 µM)
- MIC [4]: 12.5 µg/mL (≈ 23.5 µM)
- MIC [5]: 12.5 µg/mL (≈ 23.5 µM)

Compound: CSC1=C(Nc2ccc(F)c(F)c2F)C(=O)c2cccnc2C1=O [compound 5, 6-[(N-2,3,4-trifulorophenyl)amino]-7-methylmercapto-5,8-quinolindion]
- MIC C. tropicallis [1]: 3.2 µg/mL (≈ 9.13 µM)
- MIC C. neoformans [2]: 6.3 µg/mL (≈ 18 µM)
- MIC C. parapsilosis [3]: 25.0 µg/mL (≈ 71.4 µM)
- MIC C. glabrata [4]: 3.2 µg/mL (≈ 9.13 µM)
- MIC C. albicans [5]: 1.6 µg/mL (≈ 4.57 µM)

Compound: CSC1=C(Nc2ccc(Cl)cc2)C(=O)c2cccnc2C1=O [compound 6, 6-[(N-4-chlorophenyl)amino]-7-methylmercapto-5,8-quinolindion]
- MIC [1]: < 0.8 µg/mL
- MIC [2]: 12.5 µg/mL (≈ 37.8 µM)
- MIC [3]: 25 µg/mL (≈ 75.6 µM)
- MIC [4]: 6.3 µg/mL (≈ 19 µM)
- MIC [5]: 12.5 µg/mL (≈ 37.8 µM)

Compound: CSC1=C(Nc2ccc(I)cc2)C(=O)c2cccnc2C1=O [compound 7, 6-[(N-4-iodophenyl)amino]-7-methylmercapto-5,8-quinolindion]
- MIC [1]: 3.2 µg/mL (≈ 7.58 µM)
- MIC [2]: 3.2 µg/mL (≈ 7.58 µM)
- MIC [3]: 25 µg/mL (≈ 59.2 µM)
- MIC [4]: 3.2 µg/mL (≈ 7.58 µM)
- MIC [5]: 6.3 µg/mL (≈ 14.9 µM)

Compound: N#CSC1=C(Nc2ccc(I)cc2)C(=O)c2cccnc2C1=O [compound 8, 6-[(N-4-iodophenyl)amino]-7-thiocyano-5,8-quinolindion]
- MIC [1]: 12.5 µg/mL (≈ 28.9 µM)
- MIC [2]: 12.5 µg/mL (≈ 28.9 µM)
- MIC [3]: 100 µg/mL (≈ 231 µM)
- MIC [4]: 12.5 µg/mL (≈ 28.9 µM)
- MIC [5]: 12.5 µg/mL (≈ 28.9 µM)

Compound: N#CSC1=C(Nc2ccc(Br)cc2)C(=O)c2cccnc2C1=O [compound 9, 6-[(N-4-bromophenyl)amino]-7-thiocyano-5,8-quinolindion]
- MIC [1]: < 0.8 µg/mL
- MIC [2]: 3.2 µg/mL (≈ 8.29 µM)
- MIC [3]: < 0.8 µg/mL
- MIC [4]: 6.3 µg/mL (≈ 16.3 µM)
- MIC [5]: < 0.8 µg/mL

Compound: N#CSC1=C(Nc2ccc(Cl)cc2)C(=O)c2cccnc2C1=O [compound 10, 6-[(N-4-chlorophenyl)amino]-7-thiocyano-5,8-quinolindion]
- MIC [1]: 12.5 µg/mL (≈ 36.6 µM)
- MIC [2]: 6.3 µg/mL (≈ 18.4 µM)
- MIC [3]: 100 µg/mL (≈ 293 µM)
- MIC [4]: 12.5 µg/mL (≈ 36.6 µM)
- MIC [5]: 12.5 µg/mL (≈ 36.6 µM)

Compound: CC(=O)c1ccc(NC2=C(SC#N)C(=O)c3ncccc3C2=O)cc1 [compound 11, 6-[(N-4-acetophenyl)amino]-7-thiocyano-5,8-quinolindion]
- MIC C. tropicallis [1]: 3.2 µg/mL (≈ 9.16 µM)
- MIC C. neoformans [2]: <0.8 µg/mL
- MIC C. parapsilosis [3]: 3.2 µg/mL (≈ 9.16 µM)
- MIC C. glabrata [4]: 25 µg/mL (≈ 71.6 µM)
- MIC C. albicans [5]: 6.3 µg/mL (≈ 18 µM)

Compound: N#CSC1=C(Nc2cc(F)cc(F)c2)C(=O)c2cccnc2C1=O [compound 12, 6-[(N-3,5-difulorophenyl)amino]-7-thiocyano-5,8-quinolindion]
- MIC C. tropicallis [1]: 3.2 µg/mL (≈ 9.32 µM)
- MIC C. neoformans [2]: <0.8 µg/mL
- MIC C. parapsilosis [3]: 1.6 µg/mL (≈ 4.66 µM)
- MIC C. glabrata [4]: 12.5 µg/mL (≈ 36.4 µM)
- MIC C. albicans [5]: 12.5 µg/mL (≈ 36.4 µM)

Compound: CCSC1=C(Cl)C(=O)c2ncccc2C1=O [compound 13, 6-n-ethylmercapto-7-chloro-5,8-quinolindion]
- MIC C. tropicallis [1]: 100 µg/mL (≈ 394 µM)
- MIC C. neoformans [2]: 6.3 µg/mL (≈ 24.8 µM)
- MIC C. parapsilosis [3]: 3.2 µg/mL (≈ 12.6 µM)
- MIC C. glabrata [4]: 50 µg/mL (≈ 197 µM)
- MIC C. albicans [5]: 12.5 µg/mL (≈ 49.3 µM)

Compound: CCCSC1=C(Cl)C(=O)c2ncccc2C1=O [compound 14, 6-n-propylmercapto-7-chloro-5,8-quinolindion]
- MIC [1]: 50 µg/mL (≈ 187 µM)
- MIC [2]: 3.2 µg/mL (≈ 12 µM)
- MIC [3]: 12.5 µg/mL (≈ 46.7 µM)
- MIC [4]: 50 µg/mL (≈ 187 µM)
- MIC [5]: 12.5 µg/mL (≈ 46.7 µM)

Compound: CCCCSC1=C(Cl)C(=O)c2ncccc2C1=O [compound 15, 6-n-butylmercapto-7-chloro-5,8-quinolindion]
- MIC [1]: 100 µg/mL (≈ 355 µM)
- MIC [2]: 12.5 µg/mL (≈ 44.4 µM)
- MIC [3]: 25 µg/mL (≈ 88.7 µM)
- MIC [4]: 12.5 µg/mL (≈ 44.4 µM)
- MIC [5]: 25 µg/mL (≈ 88.7 µM)

Compound: CCCCCSC1=C(Cl)C(=O)c2ncccc2C1=O [compound 16, 6-n-pentylmercapto-7-chloro-5,8-quinolindion]
- MIC [1]: 50 µg/mL (≈ 169 µM)
- MIC [2]: 25 µg/mL (≈ 84.5 µM)
- MIC [3]: 6.3 µg/mL (≈ 21.3 µM)
- MIC [4]: 12.5 µg/mL (≈ 42.3 µM)
- MIC [5]: 3.2 µg/mL (≈ 10.8 µM)

Compound: CCCCCCCSC1=C(Cl)C(=O)c2ncccc2C1=O [compound 18, 6-n-heptylmercapto-7-chloro-5,8-quinolindion]
- MIC [1]: 12.5 µg/mL (≈ 38.6 µM)
- MIC [2]: 12.5 µg/mL (≈ 38.6 µM)
- MIC [3]: 6.3 µg/mL (≈ 19.5 µM)
- MIC [4]: 50 µg/mL (≈ 154 µM)
- MIC [5]: 6.3 µg/mL (≈ 19.5 µM)

Compound: CCCCCCCCSC1=C(Cl)C(=O)c2ncccc2C1=O [compound 19, 6-n-octylmercapto-7-chloro-5,8-quinolindion]
- MIC [1]: 12.5 µg/mL (≈ 37 µM)
- MIC [2]: 12.5 µg/mL (≈ 37 µM)
- MIC [3]: 3.2 µg/mL (≈ 9.47 µM)
- MIC [4]: 25 µg/mL (≈ 74 µM)
- MIC [5]: 12.5 µg/mL (≈ 37 µM)

Compound: CCCCCCCCCSC1=C(Cl)C(=O)c2ncccc2C1=O [compound 20, 6-n-nonylmercapto-7-chloro-5,8-quinolindion]
- MIC [1]: 6.3 µg/mL (≈ 17.9 µM)
- MIC [2]: 25 µg/mL (≈ 71 µM)
- MIC [3]: 25 µg/mL (≈ 71 µM)
- MIC [4]: 50 µg/mL (≈ 142 µM)
- MIC [5]: 50 µg/mL (≈ 142 µM)
